In patent publication US20230278972A1, “SUBSTITUTED HALOALKYL SULFONANILIDE HERBICIDES” (FMC Corporation, priority 2020, published 2023):

Tests used:
Format in all cases: in vivo
[1] = tested on: goosegrass (Eleusine indica); test: Test A1 preemergence, goosegrass
Method in brief: (§1)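 Test compounds were formulated in a non-phytotoxic solvent mixture containing a surfactant. For preemergence, seeds sown in a loam soil–sand blend received a directed soil spray. For postemergence, potted plants in the same soil, 2 to 10 cm tall at the one- to two-leaf stage, were sprayed.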

[2] = tested on: wheat (Triticum aestivum); test: Test A1 preemergence, wheat
Method in brief: as §1

[3] = tested on: Ryegrass, Italian (Italian ryegrass, Lolium multiflorum); test: Test A1 postemergence, Ryegrass, Italian; details: Postemergence
Method in brief: as §1

rice (Oryza sativa) = test: Test B1 flooded paddy test, rice; details: 250 g ai/ha, Flood, applied to paddy water, 2-leaf stage, visually evaluated after 10 to 14 days
Source text: A dash (-) response means no test result.

[4] = tested on: blackgrass (Alopecurus myosuroides); test: Test A1 preemergence, blackgrass
Method in brief: as §1

[5] = tested on: blackgrass (Alopecurus myosuroides); test: Test A1 postemergence, blackgrass; details: Postemergence, 0 to 100 scale (0 no effect, 100 complete control)
Method in brief: as §1

[6] = tested on: horseweed (Erigeron canadensis); test: Test A1 postemergence, horseweed; details: Postemergence
Method in brief: as §1

[7] = tested on: Pigweed, Palmer (palmer amaranth, palmer pigweed, Amaranthus palmeri); test: Test A1 postemergence, Pigweed, Palmer; details: Postemergence
Method in brief: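 Plants were grown in a loam soil/sand blend, with test chemicals formulated in a non-phytotoxic solvent mixture containing surfactant. Preemergence treatment (corn) was a directed soil spray at planting. Postemergence treatment was applied to plants 2 to 10 cm tall at the one- to two-leaf stage.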

[8] = tested on: Foxtail, Giant (giant foxtail, Setaria faberi); test: Test A1 postemergence, Foxtail, Giant; details: Postemergence
Method in brief: as §1

[9] = tested on: goosegrass (Eleusine indica); test: Test A1 postemergence, goosegrass; details: Postemergence
Method in brief: as §1

[10] = 31 g ai/ha, 0 to 100 scale (0 no effect, 100 complete control)
[11] = 125 g ai/ha, 0 to 100 scale, 0 no effect, 100 complete control
[12] = 31 g ai/ha, 0 to 100 scale (0 no effect, 100 complete control), 10 days

SMILES | Plant response rating, Goosegrass [1, 10] | Plant response rating, Goosegrass [1, 11] | Plant response rating, Wheat [2, 10] | Plant response rating, Wheat [2, 11] | Plant response rating, Ryegrass, Italian [3, 12] | Plant response rating, Ryegrass, Italian ([3]; 125 g ai/ha, 0 to 100 scale) | Plant response rating, Rice (0 to 100 scale, 0 is no effect, 100 is complete control) (rice (Oryza sativa)) | Plant response rating, Blackgrass [4, 10] | Plant response rating, Blackgrass [4, 11] | Plant response rating, Blackgrass ([5]; 31 g ai/ha, 10 days) | Plant response rating, Blackgrass ([5]; 125 g ai/ha) | Plant response rating, Horseweed [6, 12] | Plant response rating, Horseweed ([6]; 125 g ai/ha, 0 to 100 scale) | Plant response rating, Pigweed, Palmer [7, 12] | Plant response rating, Pigweed, Palmer ([7]; 125 g ai/ha, 0 to 100 scale) | Plant response rating, Foxtail, Giant [8, 12] | Plant response rating, Foxtail, Giant ([8]; 125 g ai/ha, 0 to 100 scale) | Plant response rating, Goosegrass [9, 12] | Plant response rating, Goosegrass ([9]; 125 g ai/ha, 0 to 100 scale)
CCOC(=O)N(c1cc(C(=O)N2CCCCC2)c(C)c(C)c1C)S(=O)(=O)C(F)(F)F [Compound 330, Ethyl N-[(trifluoromethyl)sulfonyl]-N-[2,3,4-trimethyl-5-(1-piperidinylcarbonyl)phenyl]carbamate] | 40 | 100 | 0 | 30 | 0 | 0 | 0 | 0 | 30 | 0 | 40 | 80 | 90 | 0 | 50 | 20 | 80 | 0 | 40
Cc1cc(C)c(N(COC(=O)N(C)C)S(=O)(=O)C(F)(F)F)cc1C1=NOC2CCCC12 (centres unmarked) [Compound 317] | 0 | 0 | 0 | 0 | 0 | 0 | 0 | 0 | 0 | 0 | 0 | 0 | 0 | 0 | 0 | 0 | 0 | 0 | 0
